Laboratory results from patent US20040024231A1, “17Alpha fluoroalkyl steroids, method for producing the same and pharmaceutical compositions containing said compounds” (priority 2000, published 2004).

molecular target: T1, androgen receptors (Homo sapiens, UniProt P10275); experiment: receptor binding affinities to the androgen receptors (RBA); details: receptor binding affinity to the androgen receptors; R 1881 (Methyltrienolone) = 100
T1 sequence (P10275 1-920): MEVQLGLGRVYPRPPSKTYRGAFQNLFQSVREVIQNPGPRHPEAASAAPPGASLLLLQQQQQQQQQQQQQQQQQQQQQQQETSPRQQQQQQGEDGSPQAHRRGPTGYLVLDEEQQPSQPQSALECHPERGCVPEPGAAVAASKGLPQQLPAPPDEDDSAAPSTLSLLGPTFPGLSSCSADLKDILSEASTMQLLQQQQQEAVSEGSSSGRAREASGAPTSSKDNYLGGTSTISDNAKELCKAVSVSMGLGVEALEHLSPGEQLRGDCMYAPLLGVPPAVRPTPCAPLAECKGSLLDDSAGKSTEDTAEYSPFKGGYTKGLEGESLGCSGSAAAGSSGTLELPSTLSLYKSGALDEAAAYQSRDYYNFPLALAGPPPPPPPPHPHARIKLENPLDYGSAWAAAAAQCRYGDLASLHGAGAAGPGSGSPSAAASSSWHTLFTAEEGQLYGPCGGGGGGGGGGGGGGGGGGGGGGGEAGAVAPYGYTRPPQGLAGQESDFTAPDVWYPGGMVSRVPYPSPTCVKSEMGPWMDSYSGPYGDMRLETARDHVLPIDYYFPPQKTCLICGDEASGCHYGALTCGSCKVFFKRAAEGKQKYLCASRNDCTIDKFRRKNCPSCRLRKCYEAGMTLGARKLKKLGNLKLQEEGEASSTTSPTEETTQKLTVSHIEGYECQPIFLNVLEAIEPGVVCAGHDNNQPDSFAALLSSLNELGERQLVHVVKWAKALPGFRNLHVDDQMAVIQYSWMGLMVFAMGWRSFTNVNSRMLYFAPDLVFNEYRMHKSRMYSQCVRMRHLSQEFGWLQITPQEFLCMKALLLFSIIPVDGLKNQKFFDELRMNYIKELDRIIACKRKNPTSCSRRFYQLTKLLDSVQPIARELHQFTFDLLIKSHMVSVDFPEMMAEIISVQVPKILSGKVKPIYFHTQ

Point of comparison: `CC12CCC3C4CCC(=O)C(O)=C4CCC3C1CCC2(O)C(F)(F)C(F)(F)F` (stereo not drawn) [17β,4-Dihydroxy-17α-pentafluoroethyl-estr-4-en-3-one], RBA 20%. Against it:
- CC12CCC3C4CCC(=O)C(O)=C4CCC3C1CCC2(O)C(F)(F)F (stereo not drawn) [17β,4-Dihydroxy-17α-trifluoromethyl-estr-4-en-3-one] — lower, 15%
- CC12CCC(=O)C=C1CCC1C2C(O)CC2(C)C1CCC2(O)C(F)(F)F (stereo not drawn) [17β,11β-Dihydroxy-17α-trifluoromethyl-androst-4-en-3-one] — lower, 8.6%
- CC12CCC3C4CCC(=O)C(Cl)=C4CCC3C1CCC2(O)C(F)(F)C(F)(F)F (stereo not drawn) [17β-Hydroxy-17α-pentafluoroethyl-4-chloro-estr-4-en-3-one] — higher, 27%
- CC1CC2=CC(=O)CCC2C2CCC3(C)C(CCC3(O)C(F)(F)C(F)(F)F)C12 (stereo not drawn) [17β-Hydroxy-17α-pentafluoroethyl-7α-methyl-estr-4-en-3-one] — higher, 34%
- CC12CCC3C4CCC(=O)C=C4CCC3C1CCC2(O)C(F)(F)C(F)(F)F (stereo not drawn) [17β-Hydroxy-17α-pentafluoroethyl-estr-4-en-3-one] — higher, 21%
- CC12CCC(=O)C(Cl)=C1CCC1C2CCC2(C)C1CCC2(O)C(F)(F)F (stereo not drawn) [17β-Hydroxy-17α-trifluoromethyl-4-chloro-androst-4-en-3-one] — the same, 20%
- CC12CCC3C4CCC(=O)C(Cl)=C4CCC3C1CCC2(O)C(F)(F)F (stereo not drawn) [17β-Hydroxy-17α-trifluoromethyl-4-chloro-estr-4-en-3-one] — higher, 41%
- CC1CC2=CC(=O)CCC2(C)C2CCC3(C)C(CCC3(O)C(F)(F)F)C12 (stereo not drawn) [17β-Hydroxy-17α-trifluoromethyl-7α-methyl-androst-4-en-3-one] — higher, 30%
- CC1CC2=CC(=O)CCC2C2CCC3(C)C(CCC3(O)C(F)(F)F)C12 (stereo not drawn) [17β-Hydroxy-17α-trifluoromethyl-7α-methyl-estr-4-en-3-one] — higher, 40%
- C[C@]12CCC(=O)C=C1CC[C@@H]1[C@@H]2CC[C@@]2(C)[C@H]1CC[C@@]2(O)C(F)(F)F [17β-Hydroxy-17α-trifluoromethyl-androst-4-en-3-one] — lower, 9.4%
- C[C@]1(O)CC[C@H]2[C@@H]3CCC4=CC(=O)CCC4=C3C=C[C@@]21C [R 1881 (Methyltrienolone), Methyltrienolone, reference compound] — higher, 100%
